Data as given in US20170314074A1, “LPA-ASSOCIATED PROTEIN AND RNA EXPRESSION” (Intermune, Inc., priority 2014, published 2017).

Tested on: fibroblasts and/or epithelial cells
Test: mRNA expression after LPA induction, Affymetrix Human Gene ST arrays, fibroblasts and/or epithelial cells (Table 3)
Type: cell-based
Description: Changes in gene expression after 3 hours of LPA induction were profiled on Affymetrix Human Gene ST 2.0 microarrays; differentially expressed genes identified by ANOVA with FDR <0.05 and fold-change >1.2. Process networks associated with differentially expressed genes were defined using MetaCore. Changes in secreted protein expression after 24 hours of LPA induction were profiled on an aptamer-based proteomic platform (1129 proteins); differentially expressed proteins identified by t-test.
Total RNA was isolated from normal human lung fibroblasts, human bronchial epithelial cells, and human pulmonary alveolar epithelial cells treated for […] with LPA and/or LPAR1 inhibitor. Each treatment condition was assayed in triplicate. Samples were profiled on Affymetrix Human Gene ST Arrays 1.0 and/or 2.0 after preparation using the Ambion WT Expression Kit according to manufacturers' instructions.
Data normalization and all subsequent analyses were performed in Partek Genomics Suite (Partek, St. Louis, Mo.). Data were normalized using the Robust Multi-array Average (RMA) algorithm. Differentially expressed genes were identified by ANOVA with correction for multiple comparisons with p-value with FDR<0.05. A fold-change cut-off was not strictly applied, although the majority of the differentially expressed genes identified have fold-changes greater than 1.2. […]

lysophosphatidic acid [LPA]
changes in gene expression induced by LPA: induced significant changes in gene expression
